Reference: PubChem BioAssay (NCI)
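Where inhibition never reached the appropriate level, the endpoint shown equals the highest concentration tested. Otherwise, values were interpolated linearly from a five-concentration, 48-hour dose response in 96-well plates. GI50 = concentration required for 50% inhibition of growth. TGI: concentration producing complete growth inhibition.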

Legend:
Test in all cases: NCI anticancer screen, dose series, 48 h
NCI-H460 lung = system: NCI-H460 lung
HL-60(TB) leukemia = system: HL-60(TB) leukemia
TK-10 renal = system: TK-10 renal
A549 NSCLC = system: A549 NSCLC
NCI/ADR-RES ovarian = system: NCI/ADR-RES ovarian
UO-31 renal = system: UO-31 renal
A498 renal = system: A498 renal
SF-295 CNS = system: SF-295 CNS
DU-145 prostate = system: DU-145 prostate
RXF 393 renal = system: RXF 393 renal
HOP-62 NSCLC = system: HOP-62 NSCLC
M14 melanoma = system: M14 melanoma
OVCAR-5 ovarian = system: OVCAR-5 ovarian
OVCAR-4 ovarian = system: OVCAR-4 ovarian
SF-268 CNS = system: SF-268 CNS
NCI-H522 lung = system: NCI-H522 lung
HCC-2998 colon = system: HCC-2998 colon
LOX IMVI melanoma = system: LOX IMVI melanoma
PC-3 prostate = system: PC-3 prostate
CCRF-CEM leukemia = system: CCRF-CEM leukemia
SW-620 colon = system: SW-620 colon
HCT-116 colon = system: HCT-116 colon
SK-MEL-5 melanoma = system: SK-MEL-5 melanoma
U251 CNS = system: U251 CNS
SK-OV-3 ovarian = system: SK-OV-3 ovarian
MDA-N = system: MDA-N
BT-549 breast = system: BT-549 breast
T-47D breast = system: T-47D breast
SNB-19 CNS = system: SNB-19 CNS
HOP-92 NSCLC = system: HOP-92 NSCLC
COLO 205 colon = system: COLO 205 colon
MDA-MB-435 = system: MDA-MB-435
UACC-62 melanoma = system: UACC-62 melanoma
OVCAR-8 ovarian = system: OVCAR-8 ovarian
SF-539 CNS = system: SF-539 CNS
MALME-3M melanoma = system: MALME-3M melanoma
SNB-75 CNS = system: SNB-75 CNS
HCT-15 colon = system: HCT-15 colon
OVCAR-3 ovarian = system: OVCAR-3 ovarian
NCI-H23 lung = system: NCI-H23 lung
K-562 leukemia = system: K-562 leukemia
786-0 renal = system: 786-0 renal
ACHN renal = system: ACHN renal
KM12 colon = system: KM12 colon
IGROV1 ovarian = system: IGROV1 ovarian
HT29 colon = system: HT29 colon
UACC-257 melanoma = system: UACC-257 melanoma
SN12C renal = system: SN12C renal
CAKI-1 renal = system: CAKI-1 renal
SK-MEL-28 melanoma = system: SK-MEL-28 melanoma
NCI-H226 lung = system: NCI-H226 lung
SK-MEL-2 melanoma = system: SK-MEL-2 melanoma
MCF7 breast = system: MCF7 breast
MDA-MB-231 breast = system: MDA-MB-231 breast
HS 578T breast = system: HS 578T breast
RPMI-8226 leukemia = system: RPMI-8226 leukemia
MOLT-4 leukemia = system: MOLT-4 leukemia
EKVX NSCLC = system: EKVX NSCLC

Q: With CC(C)(C)OC(=O)NCCC1SC2C=CC1C2 (centres undefined) as the molecule, how does the TGI (NCI-H460 lung) read?
A: > 100 µM

Q: What about the TGI (HL-60(TB) leukemia) of the same molecule?
A: > 100 µM

Q: And the TGI (TK-10 renal)?
A: > 100 µM

Q: And the TGI (A549 NSCLC)?
A: > 100 µM

Q: What about the TGI (NCI/ADR-RES ovarian) of the same molecule?
A: > 100 µM

Q: What about the TGI (UO-31 renal) of the same molecule?
A: > 100 µM

Q: What about the TGI (A498 renal) of the same molecule?
A: > 100 µM

Q: What about the TGI (SF-295 CNS) of the same molecule?
A: > 100 µM

Q: And the TGI (DU-145 prostate)?
A: > 100 µM

Q: And the TGI (RXF 393 renal)?
A: > 100 µM

Q: And the TGI (HOP-62 NSCLC)?
A: > 100 µM

Q: What about the TGI (M14 melanoma) of the same molecule?
A: > 100 µM

Q: And the TGI (OVCAR-5 ovarian)?
A: > 100 µM

Q: And the TGI (OVCAR-4 ovarian)?
A: > 100 µM

Q: What about the TGI (SF-268 CNS) of the same molecule?
A: > 100 µM

Q: And the TGI (NCI-H522 lung)?
A: > 100 µM

Q: And the TGI (HCC-2998 colon)?
A: > 100 µM

Q: And the TGI (LOX IMVI melanoma)?
A: > 100 µM

Q: What about the TGI (PC-3 prostate) of the same molecule?
A: > 100 µM

Q: What about the TGI (CCRF-CEM leukemia) of the same molecule?
A: > 100 µM

Q: And the TGI (SW-620 colon)?
A: > 100 µM

Q: What about the TGI (HCT-116 colon) of the same molecule?
A: > 100 µM

Q: And the TGI (SK-MEL-5 melanoma)?
A: > 100 µM

Q: What about the TGI (U251 CNS) of the same molecule?
A: > 100 µM

Q: What about the TGI (SK-OV-3 ovarian) of the same molecule?
A: > 100 µM

Q: What about the TGI (MDA-N) of the same molecule?
A: > 100 µM

Q: What about the TGI (BT-549 breast) of the same molecule?
A: > 100 µM

Q: What about the TGI (T-47D breast) of the same molecule?
A: > 100 µM

Q: What about the TGI (SNB-19 CNS) of the same molecule?
A: > 100 µM

Q: What about the TGI (HOP-92 NSCLC) of the same molecule?
A: > 100 µM

Q: And the TGI (COLO 205 colon)?
A: > 100 µM

Q: What about the TGI (MDA-MB-435) of the same molecule?
A: > 100 µM

Q: What about the TGI (UACC-62 melanoma) of the same molecule?
A: > 100 µM

Q: And the TGI (OVCAR-8 ovarian)?
A: > 100 µM

Q: And the TGI (SF-539 CNS)?
A: > 100 µM

Q: What about the TGI (MALME-3M melanoma) of the same molecule?
A: > 100 µM

Q: What about the TGI (SNB-75 CNS) of the same molecule?
A: > 100 µM

Q: And the TGI (HCT-15 colon)?
A: > 100 µM

Q: What about the TGI (OVCAR-3 ovarian) of the same molecule?
A: > 100 µM

Q: What about the TGI (NCI-H23 lung) of the same molecule?
A: > 100 µM

Q: What about the TGI (K-562 leukemia) of the same molecule?
A: > 100 µM

Q: And the TGI (786-0 renal)?
A: > 100 µM

Q: And the TGI (ACHN renal)?
A: > 100 µM

Q: What about the TGI (KM12 colon) of the same molecule?
A: > 100 µM

Q: And the TGI (IGROV1 ovarian)?
A: > 100 µM

Q: And the TGI (HT29 colon)?
A: > 100 µM

Q: What about the TGI (UACC-257 melanoma) of the same molecule?
A: > 100 µM

Q: What about the TGI (SN12C renal) of the same molecule?
A: > 100 µM

Q: And the TGI (CAKI-1 renal)?
A: > 100 µM

Q: And the TGI (SK-MEL-28 melanoma)?
A: > 100 µM

Q: And the TGI (NCI-H226 lung)?
A: > 100 µM

Q: And the TGI (SK-MEL-2 melanoma)?
A: > 100 µM

Q: What about the TGI (MCF7 breast) of the same molecule?
A: > 100 µM

Q: What about the TGI (MDA-MB-231 breast) of the same molecule?
A: > 100 µM

Q: What about the TGI (HS 578T breast) of the same molecule?
A: > 100 µM

Q: And the TGI (RPMI-8226 leukemia)?
A: > 100 µM

Q: What about the TGI (MOLT-4 leukemia) of the same molecule?
A: > 100 µM

Q: What about the TGI (EKVX NSCLC) of the same molecule?
A: > 100 µM

Q: What does the source list for O=C(c1ccc(Cl)c(Cl)c1)N1CCN(C(=O)c2ccc(Cl)c(Cl)c2)C1=S?
A: GI50 (NCI-H460 lung): 22 µM; TGI (NCI-H460 lung): 49.4 µM; GI50 (HL-60(TB) leukemia): 12.7 µM; TGI (HL-60(TB) leukemia): 31.3 µM; GI50 (TK-10 renal): 18.5 µM; TGI (TK-10 renal): 36.5 µM; GI50 (A549 NSCLC): 27.8 µM; TGI (A549 NSCLC): 68.9 µM; GI50 (NCI/ADR-RES ovarian): 34.4 µM; TGI (NCI/ADR-RES ovarian): > 100 µM; GI50 (A498 renal): 20.2 µM; TGI (A498 renal): 36 µM; GI50 (SF-295 CNS): 18.5 µM; TGI (SF-295 CNS): 39.7 µM; GI50 (DU-145 prostate): 14.7 µM; TGI (DU-145 prostate): 29 µM; GI50 (RXF 393 renal): 17.8 µM; TGI (RXF 393 renal): 35.8 µM; GI50 (HOP-62 NSCLC): 17.6 µM; TGI (HOP-62 NSCLC): 42.8 µM; GI50 (M14 melanoma): 19.6 µM; TGI (M14 melanoma): 37.9 µM; GI50 (OVCAR-5 ovarian): 24.3 µM; TGI (OVCAR-5 ovarian): 51.3 µM; GI50 (OVCAR-4 ovarian): 16.8 µM; TGI (OVCAR-4 ovarian): 31.4 µM; GI50 (SF-268 CNS): 16.8 µM; TGI (SF-268 CNS): 47.9 µM; GI50 (NCI-H522 lung): 6.14 µM; TGI (NCI-H522 lung): 25 µM; GI50 (HCC-2998 colon): 19.9 µM; TGI (HCC-2998 colon): 42.9 µM; GI50 (LOX IMVI melanoma): 7.63 µM; TGI (LOX IMVI melanoma): 24.2 µM; GI50 (PC-3 prostate): 16.7 µM; TGI (PC-3 prostate): 31.7 µM; GI50 (CCRF-CEM leukemia): 4.47 µM; TGI (CCRF-CEM leukemia): 18.7 µM; GI50 (SW-620 colon): 21.3 µM; TGI (SW-620 colon): 52.1 µM; GI50 (HCT-116 colon): 18.1 µM; TGI (HCT-116 colon): 32.8 µM; GI50 (U251 CNS): 16.4 µM; TGI (U251 CNS): 29.9 µM; GI50 (SK-OV-3 ovarian): 18.2 µM; TGI (SK-OV-3 ovarian): 33.9 µM; GI50 (MDA-N): 18.3 µM; TGI (MDA-N): 38.4 µM; GI50 (BT-549 breast): 23.6 µM; TGI (BT-549 breast): 48 µM; GI50 (T-47D breast): 17.5 µM; TGI (T-47D breast): 73.6 µM; GI50 (SNB-19 CNS): 21.4 µM; TGI (SNB-19 CNS): 40.7 µM; GI50 (HOP-92 NSCLC): 20 µM; TGI (HOP-92 NSCLC): 34.2 µM; GI50 (COLO 205 colon): 17.8 µM; TGI (COLO 205 colon): 33.6 µM; GI50 (MDA-MB-435): 15.4 µM; TGI (MDA-MB-435): 31.3 µM; GI50 (UACC-62 melanoma): 18.1 µM; TGI (UACC-62 melanoma): 34.4 µM; GI50 (OVCAR-8 ovarian): 19 µM; TGI (OVCAR-8 ovarian): 34.1 µM; GI50 (SF-539 CNS): 15.1 µM; TGI (SF-539 CNS): 29.9 µM; GI50 (MALME-3M melanoma): 14.9 µM; TGI (MALME-3M melanoma): 30.6 µM; GI50 (SNB-75 CNS): 18.9 µM; TGI (SNB-75 CNS): 36.4 µM; GI50 (HCT-15 colon): 19.6 µM; TGI (HCT-15 colon): 43.7 µM; GI50 (OVCAR-3 ovarian): 17.1 µM; TGI (OVCAR-3 ovarian): 35.2 µM; GI50 (NCI-H23 lung): 22 µM; TGI (NCI-H23 lung): 43 µM; GI50 (K-562 leukemia): 16.3 µM; TGI (K-562 leukemia): 60 µM; GI50 (786-0 renal): 7.16 µM; TGI (786-0 renal): 20.5 µM; GI50 (ACHN renal): 19.2 µM; TGI (ACHN renal): 34.4 µM; GI50 (KM12 colon): 16.1 µM; TGI (KM12 colon): 33.1 µM; GI50 (IGROV1 ovarian): 19.7 µM; TGI (IGROV1 ovarian): 36.3 µM; GI50 (HT29 colon): 24.2 µM; TGI (HT29 colon): 53 µM; GI50 (UACC-257 melanoma): 17.3 µM; TGI (UACC-257 melanoma): 35.6 µM; GI50 (SN12C renal): 18.3 µM; TGI (SN12C renal): 43.9 µM; GI50 (CAKI-1 renal): 14 µM; TGI (CAKI-1 renal): 27.1 µM; GI50 (SK-MEL-28 melanoma): 30.6 µM; TGI (SK-MEL-28 melanoma): 69.8 µM; GI50 (NCI-H226 lung): 19 µM; TGI (NCI-H226 lung): 37.4 µM; GI50 (SK-MEL-2 melanoma): 18.4 µM; TGI (SK-MEL-2 melanoma): 33.9 µM; GI50 (MCF7 breast): 5.57 µM; TGI (MCF7 breast): 36.4 µM; GI50 (MDA-MB-231 breast): 18.8 µM; TGI (MDA-MB-231 breast): 33.3 µM; GI50 (HS 578T breast): 29.1 µM; TGI (HS 578T breast): > 100 µM; TGI (RPMI-8226 leukemia): 5.6 µM; GI50 (MOLT-4 leukemia): 15.7 µM; TGI (MOLT-4 leukemia): 36.3 µM; GI50 (EKVX NSCLC): 20.8 µM; TGI (EKVX NSCLC): 38.4 µM
